Key:
TRAF6-UBC13 interaction = biological target: T1, TRAF6-UBC13 interaction (Homo sapiens, UniProt Q9Y4K3); test: ALPHAScreen TRAF6WTStrepII-Ubc13FH interaction assay; type: binding; conditions: inhibition of TRAF6-UBC13 interaction
T1 construct: RING-Zincfinger1 (RZ1) domain (residues 50-159) of TRAF6 wildtype; made in house; host or cells: E. coli BL21 codon plus RIPL
T1 sequence (Q9Y4K3 50-159): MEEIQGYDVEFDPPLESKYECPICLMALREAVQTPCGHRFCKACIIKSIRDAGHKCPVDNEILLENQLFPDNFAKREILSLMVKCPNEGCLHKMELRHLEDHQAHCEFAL
Excerpt: In order to identify small molecules that specifically target the RZ1 domain of TRAF6 and thereby prevent its binding to Ubc13, the ALPHAScreen technology (PerkinElmer) was chosen to detect TRAF6WTStrepII-Ubc13FH interaction in High-Throughput-Screenings as well as Structure Activity Relationship (SAR) analysis.
For performance of an automated ALPHAScreen assay, all following components were pre-diluted in ALPHAScreen buffer (1×PBS, 0.5% BSA, 0.01% Tween-20). First, the TRAF6 protein (end concentration 100 nM, 30 μL volume) was added to 384-well-opti-plates involving the MultiFlo dispensing system (BioTek) followed by transfer of the compounds via the Sciclone G3 transfer station (PerkinElmer). After addition of Ubc13FH (end concentration 75 nM, 10 μL volume) with the MultiFlo system and incubation for one hour at room temperature, both beads (Strep-Tactin Alpha Donor beads and Nickel-Chelate acceptor beads; end concentrations 4 μg each, 10 μL volume each) were mixed and added using the MultiFlo system in subdued light. Read-out of the plates occurred after another hour of incubation at room temperature. Statistical parameters including the coefficient of variation, Z′ factor and signal window were calculated to determine the quality of the HTS campaign. To evaluate the efficacy of the compounds, ALPHAScreen units of compound-treated samples were referred to DMSO control treated samples. Thereby, the TRAF6D57K mutant served as the control for minimum signal and was included on every plate of the screening. Compounds that inhibited TRAF6WTStrepII-Ubc13FH by more than 25% were considered as actives. After elimination of ALPHAScreen frequent hitter compounds and His-tag frequent hitters (Schorpp, K., I. Rothenaigner, E. Salmina, et al., Identification of Small-Molecule Frequent Hitters from AlphaScreen High-Throughput Screens. J Biomol Screen, 2014. 19(5): p. 715-26), 178 compounds were defined as primary hits and were subsequently tested in five-point serial dilution assays (2.5-40 μM) in TRAF6WTStrepII-Ubc13FH ALPHAScreen experiments. Only compounds with dose-dependent effects on TRAF6WTStrepII-Ubc13FH (n=27) were taken for further research. For analog testing, all compounds were analyzed in ten-point titration (0.2-100 μM) in TRAF6WTStrepII-Ubc13FH ALPHAScreen experiments. In parallel, the compounds were tested in the ALPHAScreen TruHits Kit (PerkinElmer) to rule out unspecific interference with the ALPHAScreen technology.

[1] = test system: Jurkat T-cells and U2OS cells; test: Cell cycle assessment (propidium iodide); type: cell-based; conditions: 24 hours and 72 hours treatment
Protocol: For cell cycle staining, cells were seeded at 2×10^5 cells per sample and treated with compound or DMSO. After the indicated incubation time (24 or 72 hours), cells were fixed in 100% Ethanol and subsequently stained with the Propidium Iodide staining solution (0.1% Triton X-100; 20 μg/ml Propidium Iodide; 200 μg/ml RNAse A in PBS) for 40 min in the dark. The Propidium Iodide fluorescence was collected using the Attune Flow Cytometer (Thermo Fisher Scientific). Analysis was performed using the Single Cell analysis software FlowJo.

[2] = test system: U2932 (ABC DLBCL-MYD88 wt); test: Cell viability in DLBCL, U2932; type: cell-based; conditions: 30 μM added at day 0, 4 and 8; 9 days
Protocol: (§1) To determine the effects of C25-140 on MYD88-dependent ABC-DLBCL, we chose the HBL1 (ABC-DLBCL-MYD88 L265P), U2932 (ABC DLBCL-MYD88 wt) and BJAB (GCB DLBCL) cell lines. 1×10^6 cells of each cell line was seeded in 5 ml and treated with 30 μM compound C25-140 (compound 3) or DMSO. The entire experiment was carried out for 9 days. Every day 500 μl were taken and viable cell number was acquired using the ViCEII cell counter (Beckmann Coulter). At days 4 and 8 of the experiment the volume was again adjusted to 5 ml and samples were supplemented with 30 μM compound C25-140 or DMSO. This process was necessary to ensure linear proliferation of DMSO treated cells. All curves of C25-140 treated samples were referred to the corresponding DMSO treated controls.

BJAB (GCB DLBCL) = test: Cell viability in DLBCL, BJAB; type: cell-based; conditions: 30 μM added at day 0, 4 and 8; 9 days
Protocol: as §1

[3] = test system: human peripheral blood mononuclear cells (PBMCs); test: Cytokine secretion of primary human PBMCs; type: cell-based
Protocol: For measurement of cytokine secretion, 2×10^5 Jurkat T-cells or primary CD4^+ T-cells or human PBMCs per sample were seeded, treated with compound for 6 hours and stimulated as indicated. 20 hours after stimulation, supernatants were harvested and analyzed with the IL-2, IL-1β and TNFα Ready-Set-Go! ELISA (2nd Generation) kits provided by Affymatrix eBioscience.
For isolation of peripheral blood mononuclear cells (PBMCs) from 50 mL human blood of three different donors, blood was mixed with 800 units of Heparin (Sigma-Aldrich) and centrifuged at 300×g for 10 minutes without brake. After removal of the plasma fraction, buffy coat was diluted in 2 volumes PBS and added on top of 15 ml Lymphoprep (STEMCELL technologies). After centrifugation at 160×g for 20 minutes at room temperature without brake, platelets were removed and the cell suspension was centrifuged again at 350 xg for 20 minutes without brake. Mononuclear cells from the intermediate layer were transferred to a new falcon and washed 3 times in PBS supplemented with 0.1% BSA and 2 mM EDTA. In the end, cells were resuspended in RPMI medium containing 10% FCS, 1% Penicillin/Streptomycin and 50 μM β-mercaptoethanol. Per sample, 2×10^5 cells were seeded and treated with compound for 6 hours. The cells were stimulated with either 1 μg/ml Lipopolysaccharide (LPS) or CD3/CD28 (1 μg hCD3 (IgG2A), 4 μg hCD28 (IgG1), 2 μg ant-IgG2A and 2 μg ant-IgG2A) or 20 ng/IL-1β. Supernatants for analysis of cytokine secretion were harvested 20 hours after stimulation.

Cc1nn(-c2ccc3nnc(C)n3n2)c(C)c1CCC(=O)N1CCC(Cc2ccccc2)CC1 [Compound 3, 1-(4-benzylpiperidin-1-yl)-3-(3,5-dimethyl-1-(3-methyl-[1,2,4]triazolo[4,3-b]pyridazin-6-yl)-1H-pyrazol-4-yl)propan-1-one]
IC50 (TRAF6-UBC13 interaction): ≤ 3 µM
cell cycle progression [1]: not impaired
viability (cell count) [2]: only slightly affected
viability (cell count) (BJAB (GCB DLBCL)): did not show any difference
secretion of IL-2 and TNFα ([3]; human PBMCs stimulated with CD3/CD28): decreased levels
secretion of IL-6 and TNFα ([3]; human PBMCs stimulated with IL-1β): attenuated
secretion of IL-1β and TNFα ([3]; human PBMCs stimulated with LPS): reduced levels

From US11001591B2, “TRAF 6 inhibitors” (HELMHOLTZ ZENTRUM MUENCHEN—DEUTSCHES FORSCHUNGSZENTRUM FÜR …, priority 2016, dated 2021)
